Reference: PubChem BioAssay (NCI)
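Each compound was tested at five concentrations against cells in 96-well plates for 48 hours. At the GI50, growth is halved. TGI: concentration producing complete growth inhibition.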

Assays:
Assay in all cases: NCI tumour cell line growth inhibition, 48 h
[1] = system: LXFL 529 NSCLC
[2] = system: XF 498 CNS
[3] = system: RXF-631 renal
[4] = system: MCF7 breast
[5] = system: P388 leukemia
[6] = system: P388/ADR leukemia
[7] = system: BT-549 breast
[8] = system: MDA-N
[9] = system: SN12K1 renal
[10] = system: PC-3 prostate
[11] = system: NCI/ADR-RES ovarian

SMILES	TGI [1]	TGI [2]	TGI [3]	also measured
CC(C)(C)NCC(COc1ccc([N+](=O)[O-])cc1)OP(c1ccccc1)c1ccccc1 (configuration not stated)	> 100 µM	67.3 µM		
O=C1[C@H]2ON(c3ccccc3)C(c3ccco3)[C@H]2C(=O)N1c1ccc(Cc2ccc(N3C(=O)[C@@H]4ON(c5ccccc5)C(c5ccco5)[C@@H]4C3=O)cc2)cc1 (some centres not stated)	> 100 µM	> 100 µM		
COc1cc(CNc2nc3ccc(C(F)(F)F)cc3nc2-c2ccccc2)cc(OC)c1OC	> 100 µM	> 100 µM	> 100 µM	
C=C1C2Oc3ccccc3C1N(c1ccccc1)O2 (configuration not stated)	> 100 µM	43.5 µM	45.6 µM	
CCCCCCCCCCCCCCCCCCOCC(COCCOCC[N+]1(CCCCCC(=O)[O-])CCCC1)Oc1ncccn1 (configuration not stated)		9.46 µM		TGI [4]: 16.1 µM; TGI [5]: 1.02 µM; TGI [6]: 15.9 µM; TGI [7]: 21.4 µM; TGI [8]: 23.2 µM; TGI [9]: 17.7 µM; TGI [10]: 15 µM; TGI [11]: 24.1 µM
Cc1ccc(C)c(N2C(=O)C(=O)C(c3nc4ccccc4s3)C(=Nc3cccc4c(=O)[nH][nH]c(=O)c34)C2=O)c1 (configuration not stated)	> 100 µM		> 100 µM	
N#Cc1c(-c2ccco2)cc(-c2ccccc2)[nH]c1=O	> 100 µM		> 100 µM	
Cc1c(C)c(CC(=O)N2CC2)c(C)c(C)c1CC(=O)N1CC1	37.9 µM			TGI [4]: 63.4 µM; TGI [7]: 51.4 µM; TGI [8]: 34.2 µM; TGI [10]: 58.2 µM; TGI [11]: 74.4 µM
N#C/C(=C1\SC(N=Nc2ccc(Cl)cc2)C(=O)N1c1ccccc1)c1nc2ccccc2[nH]1 (configuration not stated)	> 100 µM	84.8 µM		
O=c1[nH]c2cc([N+](=O)[O-])ccc2nc1/C(=N\Nc1ccccc1)C(O)c1ccc2c(c1)OCO2 (configuration not stated)	> 100 µM		> 100 µM	
COc1ccccc1NC(=O)/C(=C/c1ccccc1)C(C)=O	> 100 µM	89.5 µM		
C=C1C(=O)C23C(O)C1CC[C@H]2C12CCCC(C)(COC(C)=O)[C@H]1[C@H](O)[C@]3(O)OC2 (some centres not stated)	1.69 µM	2.71 µM		TGI [7]: 2.86 µM; TGI [10]: 3.78 µM
Cc1ccccc1/C=C/C(=O)c1ccccc1	38.6 µM	30.8 µM	42.5 µM	
C[C@]12C/C(=C/O)C(=O)C(O)=C1CC[C@@H]1C2CC[C@@]2(C)C1CC[C@@H]2O (some centres not stated)	31.7 µM	33 µM	48.8 µM	
Cc1ccc2oc(=O)c(-c3ccccc3)nc2c1		> 100 µM		
Cc1cccc(C)c1N1C(=O)C(=O)C(c2nc3ccccc3s2)/C(=N/NC(=O)NN)C1=O (configuration not stated)	> 100 µM	> 100 µM		
CC(C)[O-].CC(C)[O-].O=c1cccccc1[O-].O=c1cccccc1[O-].[Ti+4]	> 100 µM	97.3 µM		GI50 [1]: 31 µM; GI50 [2]: 33.8 µM
CC(C)(C)OC(=O)NC1CCCC1=O (configuration not stated)	> 100 µM	> 100 µM	> 100 µM	
O=C1CNS(=O)(=O)N1	> 100 µM	> 100 µM		

SMILES	TGI [1]	TGI [2]	TGI [3]	also measured
C=CCNC(=O)N(CCC)CCCC(NC(C)=O)C(=O)NCc1ccccc1 (configuration not stated)	> 100 µM	> 100 µM	> 100 µM	
CC1=NN(C(=O)c2ccncc2)C(=O)C1N=Nc1ccc(F)cc1 (configuration not stated)	> 100 µM	> 100 µM		
CCCCCCC(C)CCCCCCCCCCC(=O)O (configuration not stated)	> 100 µM	> 100 µM	> 100 µM	
CN(C)C(=S)Nc1nnc(Nc2ccccc2)s1	> 100 µM		> 100 µM	
COc1ccc2c(NCCCCCCNc3c4ccccc4nc4cc(OC)ccc34)c3ccccc3nc2c1			3.97 µM	TGI [4]: 3.35 µM; TGI [7]: 3.18 µM; TGI [8]: 1.2 µM; TGI [10]: 0.543 µM; TGI [11]: 18.8 µM
CC1(O)CCn2c(=O)c3cc4ccccc4cc3c(=O)n2C1O (configuration not stated)	> 100 µM		> 100 µM	
Cc1c(C(=O)/C=C/c2ccccc2[N+](=O)[O-])[n+](=O)c2ccccc2n1[O-]	16.6 µM		23.9 µM	
Cn1c(=O)nc2n(-c3ccc(Cl)c(C(F)(F)F)c3)c3ccccc3nc-2c1=O	> 100 µM	> 78.1 µM		
CCOC(OC1=C(C#N)CCCC1)C(CC)[Se]c1ccccc1 (configuration not stated)	65.9 µM	46.5 µM	26.2 µM	
O=S1CSSC1	32.4 µM	50.1 µM	29.8 µM	
CCCCCCCCCCCC1CC(=O)NCCCN(C)CCCCN(C)CCCN1C (configuration not stated)	3.16 µM	3.08 µM		
N.N.N.N.N.O=S(=O)([O-])S(=O)(=O)[O-].[Co+3]	> 100 µM			GI50 [1]: > 100 µM
Cc1c2ccncc2c(C)c2c1[nH]c1ccc(O)c(OCC(F)(F)F)c12	15.5 µM	22.9 µM		
Cc1nc(-c2cccnc2)sc1C(=O)/C=C/c1cccc([N+](=O)[O-])c1			> 100 µM	
COc1cc(C2c3cc4c(cc3[C@@H](Nc3ccc5c(c3)OCCO5)C3COC(=O)[C@H]23)OCO4)cc(OC)c1O (some centres not stated)	> 100 µM	5.89 µM	3.51 µM	TGI [4]: > 100 µM; TGI [5]: 1.26 µM; TGI [6]: 1.25 µM; TGI [7]: 16.4 µM; TGI [9]: 9.19 µM; TGI [10]: > 100 µM; TGI [11]: > 100 µM
CC(=O)n1c(=O)c2cc3c(=O)n(-c4cccc(C#N)c4)c(=O)c3cc2c1=O	> 100 µM		> 100 µM	
O=C(CC1(O)C(=O)Nc2c(Cl)ccc(Cl)c21)c1ccc(Cl)cc1Cl (configuration not stated)	29.3 µM	33.9 µM		
Cc1cccc(C)c1N1C(=O)C(=O)C(c2nc3ccccc3s2)C(=Nc2cccc3c(=O)[nH][nH]c(=O)c23)C1=O (configuration not stated)	> 100 µM			
